Source: patent US4372948A, “Derivative of saccharide and physiologically active agent containing the same” (Kureha Kagaku Kogyo Kabushiki Kaisha, priority 1980, dated 1983)

Experiments:
[1] = in vivo; conditions: mouse, in vivo, po, mice, 7 days observation, read-out: LD50, acute oral toxicity
[2] = tested on: level of blood sugar; assay: Anti-hyperglycemia activity (reduction of blood sugar level); assay type: in vivo, rat (Wistar, streptozotocin); conditions: oral, 300 mg/kg
Experimental: A group of Wistar rats to which at first streptozotocin was interperitoneally administered at a rate of 60 mg/kg and of which the positivity of glycosuria was confirmed after a week of the administration and to which regular insulin was further administered and of which the reduction of levels of glucose in urine and blood was once confirmed, however, of which hyperglycemia and hyperglycosuria were again confirmed after a few days was chosen and used as model animals of glycosuria in the following test. After orally administering each of the present compounds to the model animals at a dose of 300 mg/kg body weight, as a solution or dispersion in distilled water, the blood was collected two times, respectively after 3 and 6 hours of the administration.

[3] = tested on: blood pressure; assay: Anti-hypertension activity (reduction of blood pressure); assay type: in vivo, rat (spontaneous hypertension); conditions: oral, 300 mg/kg
Experimental: Rats of spontaneous hypertension were orally administered with each of the present compounds as a solution or dispersion in distilled water at a dose rate of 300 mg/kg body weight. After 3 and 6 hours of the administration, the blood pressure of each rat was determined, and the difference between the above-determined value and the value just before the administeration was used as the index of the activity of reducing the blood pressure of the compound.

[4] = tested on: Sarcoma-180; assay: Anti-tumour activity against Sarcoma-180; assay type: in vivo, mouse (ICR-JCL); conditions: Mus musculus, Sarcoma-180, po, 600 h, 10 times every other day, tumour weight on 25th day, read-out: Antitumour activity, inhibiting rate (I.R.)
Experimental: Sarcoma-180 was transplanted into the axillary part of ICR-JCL mice at a rate of 1×10^6 cells/animal, and after 24 hours of transplantation, each of the present compounds as a solution or dispersion in sterilized physiological saline solution was orally administered to each of the transplanted mice 10 times every other day at a dose of 500 mg/kg/time. On 25th day of the transplantation, tumour node(s) were extirpated from all the mice to determine the weight of the tumour nodes.
Antitumour activity (activity of inhibiting the proliferation of the transplanted sarcoma) of each of the present compounds was derived by the following formula and shown in Table 6:
Antitumour activity (Inhibiting rate, I.R.)=(1-T/C)×100(%).
T represents the total weight of tumour nodes of the group of mice transplanted and administered with the present compound, and
C represents the total weight of tumour nodes of the group of mice transplanted, however, not administered with any agents.

[5] = tested on: total cholesterol; assay: Anti-hyperlipemia activity, total cholesterol in blood; assay type: in vivo, rabbit (Japanese white male); conditions: oral, 300 mg/kg once; for Reduction of cholesterol level after 3 hrs.: negative = raising
Experimental: (§1) Japanese white male rabbits were fed for 3 months with a solid diet containing 1% of cholesterol taken ad lib, and after confirming the raised lipid content of the serum of the rabbits, they were utilized as model animals suffering from experimental arteriosclerosis. Each of the present compounds was administered orally as a solution or dispersion in distilled water to the experimental animals of each group at a dose rate of 300 mg/kg once, and blood samples were taken at a predetermined time interval from the auricular vein of each animal. The content of cholesterol in the blood specimen was traced as the time passed by, with an enzymatic method, and the content of beta-lipoprotein in the same blood specimen was traced with a colorimetry. Each value in Table 7 is the difference between the level just before administration and the level after 3 or 6 hours of the administration.

[6] = tested on: beta-lipoprotein; assay: Anti-hyperlipemia activity, beta-lipoprotein in blood; assay type: in vivo, rabbit (Japanese white male); conditions: oral, 300 mg/kg once
Experimental: as §1

[7] = tested on: carrageenin edema; assay: Anti-Carrageenin edema activity; assay type: in vivo, rat; conditions: Rattus norvegicus, po, 1000 mg/kg once, read-out: I.R. against carrageenin edema
Experimental: After orally administering each of the present compounds forcibly to each group of rats, composed of 10 animals, as a solution or dispersion in distilled water at a dose of 1000 mg/kg once, 0.1 ml of an aqueous dispersion of 1% carrageenin in aqueous physiological saline solution was injected into the foot pad of the right hind leg of the administered animal following Van Arman et al. (1963). Thereafter, the thickness of the foot pad was measured at a time interval to find the rate of inhibiting of the swelling of the foot pad according to the following formula:
(§2) Rate of inhibition (I.R.) (%)=(1-T/C)×100
T means the average volume of the foot pad of the animals administered with one of the present compounds and carrageenin, and
C means that of the animal not administered with the present compound, however, administered with carrageenin.

[8] = tested on: cotton pellet granuloma; assay: Anti-granuloma activity (cotton pellet); assay type: in vivo, rat; conditions: Rattus norvegicus, po, 192 h, 7 days, read-out: I.R. against cotton pellet edema
Experimental: Following the method of Winter et al. (1963), each two cotton wool pellets, each weighing 30±1 mg, were implanted into the back of each rats of groups of rats, each group consisting of 6 animals, at the positions of mutually symmetrical concerning the median line of the rat. To these groups of the thus operated rats, the present compounds were respectively administered orally and forcibly as a solution or dispersion in distilled water for 7 continuous days, once a day at a dose of 1000 mg/kg/day. On 8th day of the implantation, the granuloma was extirpated and the dry weight of the granuloma was measured, the rate of inhibiting the proliferation of granuloma being obtained as in (5-1) being shown in Table 8.

[9] = tested on: exudation; assay: Anti-exudation activity (air pouch, croton oil); assay type: in vivo, rat; conditions: Rattus norvegicus, po, 144 h, 5 days, read-out: I.R. against exudation
Experimental: Following the method of Baris et al. (1965), air was injected subcutaneously into the back of groups of rats, each group consisting of 6 animals to make an air pouch, and 0.5 ml of sesame oil containing 1% by weight of croton oil was injected into the air pouch. Each of the present compounds was orally administered forcibly to each of the groups of rats as a solution or dispersion in distilled water at a dose rate of 1000 mg/kg/day for continued five days. The amount of liquid exudated into the air pouch was measured on 6th day of the operation. The rate of inhibiting the exudation of the liquid was obtained by the same manner as in (5-2) and the results are shown also in Table 8.

[10] = tested on: pseudo-escaping reaction to tail pressure; assay: Analgetic activity against mechanical stimulation of pressure; assay type: in vivo, mouse (ICR female); conditions: oral, 1000 mg/kg
[11] = tested on: acetic acid writhing; assay: Analgetic activity against chemical stimulation of acetic acid (writhing); assay type: in vivo, mouse (ICR female); conditions: Mus musculus, po, 30 min before 0.6% acetic acid, read-out: I.R. of writhing
Source text: as §2
T represents the average number of writhing of the group of mice administered with the present compound and injected with acetic acid, and C represents the average number of writhing of the group of mice only injected with acetic acid (control).

[12] = tested on: pyrexia (Saccharomyces cerevisiae); assay: Anti-pyrexia activity (yeast-induced); assay type: in vivo; conditions: Rattus norvegicus, oral, read-out: Rate of inhibiting pyrexia (I.R.)
Experimental: Following the method of Winter et al. (1961), an aqueous dispersion of 20% by weight of Saccharomyces cerevisiae was subcutaneously injected into groups of rats, each group consisting of 6 animals, and after 10-hour fasting, 1000 mg/kg of each of the present compounds was orally administered to the rat as a solution of dispersion in distilled water, and then the rectal temperature of the rat was measured at a predetermined interval of time to find the lowest temperature.
The anti-pyrexia activity of each compound was obtained from the following formula: […]
Anti-pyrexia activity represented by the rate of inhibition (I.R.)
C2 represents the average rectal temperature of negative control (non-treatment), not injected with the yeast and not administered with the present compound,
C1 represents the average temperature of positive control, injected with the yeast and not administered with the compound and T represents the temperature of tested animals, injected with the yeast and administered with the present compound.

Structure (SMILES) | LD50 at 168 h [1] | Reduced level of blood sugar after 3 hrs. [2] | Reduced level of blood sugar after 6 hrs. [2] | Reduced level of blood pressure after 3 hrs. [3] | Reduced level of blood pressure after 6 hrs. [3] | inhibition in vivo at 500 mg/kg [4] | Reduction of cholesterol level after 3 hrs. [5] | Reduction of cholesterol level after 6 hrs. [5] | Reduction of beta-lipoprotein level after 3 hrs. [6] | Reduction of beta-lipoprotein level after 6 hrs. [6] | inhibition in vivo at 1000 mg/kg [7] | inhibition in vivo at 1000 mg/kg/day [8] | inhibition in vivo at 1000 mg/kg/day [9] | Pseudo-escapting reaction pressure [10] | Pseudo-escapting reaction time [10] | inhibition in vivo at 1000 mg/kg [11] | inhibition in vivo at 1000 mg/kg [12]
C[C@@H]1OC(Nc2ccc(C(N)=O)cc2)[C@H](O)[C@H](O)[C@H]1O (stereo partly drawn) [Compound 5, p-aminobenzoic acid amide-N-L-rhamnoside] | 10500 mg/kg | 91 mg/dL | 128 mg/dL | 17 mm Hg | 18 mm Hg | 39% | -1 mg/dL | 32 mg/dL | 134 mg/dL | 148 mg/dL | 4.2% | 16.8% | 12.4% | 90 mmHg | 41 s | 52% | 59%
C[C@@H]1OC(Nc2ccccc2C(=O)Oc2ccccc2)[C@H](O)[C@H](O)[C@H]1O (stereo partly drawn) [Compound 6, phenyl o-aminobenzoate-N-L-rhamnoside] | > 15000 mg/kg | 121 mg/dL | 146 mg/dL | 22 mm Hg | 23 mm Hg | 44% | 4 mg/dL | 57 mg/dL | 152 mg/dL | 155 mg/dL | 7.6% | 20.5% | 19% | 98 mmHg | 43 s | 37% | 69%
O=C(Oc1ccccc1)c1cccc(NC2O[C@H](CO)[C@@H](O)[C@H](O)[C@@H]2O)c1 (stereo partly drawn) [Compound 7, phenyl m-aminobenzoate-N-D-mannoside] | 14800 mg/kg | 144 mg/dL | 159 mg/dL | 24 mm Hg | 26 mm Hg | 49% | -2 mg/dL | 62 mg/dL | 141 mg/dL | 150 mg/dL | 5.9% | 25.3% | 7.5% | 95 mmHg | 44 s | 46% | 31%
O=C(Oc1ccccc1)c1ccc(NC2OC[C@@H](O)[C@H](O)[C@H]2O)cc1 (stereo partly drawn) [Compound 8, phenyl p-aminobenzoate-N-D-xyloside] | 13500 mg/kg | 106 mg/dL | 140 mg/dL | 18 mm Hg | 20 mm Hg | 53% | 6 mg/dL | 46 mg/dL | 128 mg/dL | 144 mg/dL | 21.4% | 5.6% | 15.7% | 80 mmHg | 39 s | 20% | 47%
O=C(Oc1ccccc1)c1ccc(NC2O[C@H](CO)[C@@H](O[C@@H]3O[C@H](CO)[C@@H](O)[C@H](O)[C@H]3O)[C@H](O)[C@H]2O)cc1 (stereo partly shown) [Compound 9, phenyl p-aminobenzoate-N-cellobioside] | > 15000 mg/kg | 85 mg/dL | 121 mg/dL | 25 mm Hg | 28 mm Hg | 40% | -1 mg/dL | 40 mg/dL | 126 mg/dL | 136 mg/dL | 3.7% | 7.9% | 18.8% | 86 mmHg | 38 s | 28% | 32%
